These results are taken from ChEMBL document CHEMBL1145233, “Design, synthesis and evaluation of 5-substituted amino-2,4-diamino-8-chloropyrimido-[4,5-b]quinolines as novel antimalarials” (2005).

Holding throughout (assay type): functional
Assay [1] has as its system Mus musculus. Nature of the assay: In vivo antimalarial activity of compound against Plasmodium berghei in mice (Mus musculus) expressed as mean survival time at 20 mg/kg.
Assay [2] has as its system Mus musculus. Nature of the assay: In vivo antimalarial activity of compound against Plasmodium berghei in mice (Mus musculus) expressed as mean survival time at 160 mg/kg.
Assay [3] relates to Mus musculus. Nature of the assay: In vivo antimalarial activity of compound against Plasmodium berghei in mice (Mus musculus) expressed as mean survival time at 40 mg/kg.
For assay [4], the system named is Mus musculus. Nature of the assay: In vivo antimalarial activity of compound against Plasmodium berghei in mice (Mus musculus) expressed as mean survival time at 80 mg/kg.

`CN(COOC(C)(C)C)c1c2ccc(Cl)cc2nc2nc(N)nc(N)c12`: the Survival time is 28 days in assay [1], 14 days in assay [2], 30 days in assay [3] and 20 days in assay [4].
In assay [1], `CCN(CC)CCCC(C)Nc1ccnc2cc(Cl)ccc12` (stereo unspecified) [CHLOROQUINE] displayed a Survival time of 15 days.
In the case of `CCN(COOC(C)(C)C)c1c2ccc(Cl)cc2nc2nc(N)nc(N)c12`, the Survival time was 13 days in assay [1], 15 days in assay [2], 12 days in assay [3] and 14 days in assay [4].
For `Nc1nc(N)c2c(Nc3ccc(O)c(CN4CCCC4)c3)c3ccc(Cl)cc3nc2n1`, in that order: 15 days, 26 days, 20 days and 25 days.
For `COc1ncnc(NS(=O)(=O)c2ccc(Nc3c4ccc(Cl)cc4nc4nc(N)nc(N)c34)cc2)c1OC`, in that order: over 60 days, over 60 days, over 60 days and over 60 days.
Turning to `CCN(CC)c1cc(Nc2c3ccc(Cl)cc3nc3nc(N)nc(N)c23)ccc1O`, the Survival time in assay [1] is 12 days; in assay [2] it was 14 days; in assay [3], 13 days; in assay [4], 15 days.
In the case of `Nc1nc(N)c2c(Nc3ccc(S(=O)(=O)Nc4ccccn4)cc3)c3ccc(Cl)cc3nc2n1`, the Survival time in assay [1] stood at 11 days; in assay [2], 13 days; in assay [3] it was 14 days; in assay [4], 15 days.
On to `Nc1nc(N)c2c(Nc3cc(CN4CCCC4)c(O)c(CN4CCCC4)c3)c3ccc(Cl)cc3nc2n1`, for which the Survival time in assay [1], in assay [2], in assay [3] and in assay [4] was over 60 days throughout.
Turning to `Nc1nc(N)c2c(Nc3ccc(S(N)(=O)=O)cc3)c3ccc(Cl)cc3nc2n1`, the Survival time in assay [1] came out at 12 days; in assay [2] it was 14 days; in assay [3], 13 days; in assay [4] it was 15 days.
For `Nc1nc(N)c2c(N)c3ccc(Cl)cc3nc2n1`, in that order: 15 days, 20 days, 16 days and 18 days.
On to `CCN(CC)c1cc(Nc2c3ccc(Cl)cc3nc3nc(N)nc(N)c23)cc(N(CC)CC)c1O`, for which the Survival time in assay [1], in assay [2], in assay [3] and in assay [4] was over 60 days throughout.
